# System: PD-1/PD-L1-mediated T cell activation inhibitory signal
# Assay: CHO-PD-L1-CD3L / Jurkat-PD-1-NFAT co-culture luciferase reporter assay
# Assay type: cell-based
# Settings: Homo sapiens, co-culture 6 h, read-out: EC50 blocking PD-1/PD-L1-mediated T cell activation inhibitory signal
# Protocol: In order to detect the effect of the interaction between PD-1 and PD-L1 on T cell activation signals in the immune response, CHO-PD-L1-CD3L cells stably expressing human PD-L1 molecules and anti-CD3 single-chain antibody (ScFv) and Jurkat-PD-1-NFAT cells stably expressing human PD-1 molecule and NFAT reporter gene were constructed. When the two kinds of cells were co-incubated, the binding of anti-CD3ScFv on the surface of CHO cells and the membrane CD3 molecules of Jurkat cells would transmit an activation signal to Jurkat cells, but simultaneously, the binding of PD-L1 on the surface of CHO cells and PD-1 molecules on the surface of Jurkat cells would transmit an inhibitory signal inward to prevent expression of the luciferase reporter gene. When immune checkpoint antibodies or small molecule inhibitors were added, the binding of PD-1 and PD-L1 was blocked, the NFAT pathway activated by T cell activation signal mediated by cross-linking of CD3ScFv antibody and CD3 was no longer affected by the inhibitory signal, and the downstream luciferase reporter gene started to be expressed. A chemiluminescent signal proportional to reporter gene activation was detected by adding a catalytic substrate.
# CHO-PD-L1-CD3L cells expressing human PD-L1 molecule and anti-CD3 single-chain antibody (ScFv) and Jurkat-PD-1-NFAT cells stably expressing human PD-1 molecule and NFAT reporter gene were independently constructed and provided by Dr. Chen Bo (KeyMed Bioscience (Chengdu) Co., Ltd.). Puromycin (Cat #540411) and Hygromycin B (Cat #V900372) for stable culture of transfected cells were purchased from Sigma, PMA (Cat #P1585) was purchased from Sigma, anti-human PD-L1 antibody (Cat #GMP-A066) was purchased from Novoprotein Company. Luciferase substrate solution (Cat #E6485) and luciferase-specific cell lysis solution 5× (Cat #E1531) were purchased from Promega. Fluorescence detection instrument Tecan (Spark 10M) was purchased from Switzerland Tecan Company.
# (1) The day before the experiment, 100 μL of CHO-PD-L1-CD3L cells were inoculated in each well of a 96-well cell culture plate (about 4×10^4 cells/well) with a medium of DMEM/F12 containing 10% FBS, 8 μg/mL puromycin and 200 μg/mL hygromycin B, and cultured overnight at 37° C.
# (2) The test compounds were diluted with 0.1% PBST into different concentration gradients, added into 96-well plates, and pre-incubated for 30 min. Jurkat-PD-1-NFAT cell count was adjusted to 2×10^5 cells/mL with the RPMI 1640 complete medium containing 10% FBS, […]8 μg/mL puromycin and 200 μg/mL hygromycin B. 100 ng/mL PMA (the stock solution was prepared with DMSO to a concentration of 10 mg/mL) was added to amplify T cell activation signal. 100 μL of the above Jurkat-PD-1-NFAT cells was added to each well of the 96-well plate for co-culture.
# (3) When detecting the reaction, a control group was provided, including a solvent control without adding test compounds and a positive control with addition of anti-human PD-1 antibody as the experimental system. All detections were performed with duplicates.
# (4) After continuous incubation at 37° C. for 6 h, 40 μL of 5× cell lysate was directly added, and mixed well. The plate was placed at room temperature for 10 min to completely lyse the cells. 50 μL of the lysed cell solution was transferred to a fluorescence detection plate, and added with 30 μL of luciferase substrate solution. The chemiluminescence detection program on the fluorescence detector was immediately selected for detection.
# (5) The inhibition rate of T cell activation signal at the cellular level of the test compounds was calculated as follows: Inhibition rate of T cell activation signal (%)=(the original value of chemiluminescence in the detection well−solvent control)/(the highest original value of chemiluminescence detected in the compound detection well−solvent control)×100%. […]
row,EC50 [nM],Structure (SMILES)
1,29.9,"[2H]C([2H])([2H])n1c(C(=O)Nc2cccc(-c3cccc(NC(=O)c4nc5c(n4C([2H])([2H])[2H])CCN(CCC46CCC(C(=O)O)(CC4)C6)C5)c3Cl)c2C)nc2c1CCN(CCC13CCC(COC)(CC1)C3)C2 [Compound I-10, 4-(2-(2-((2-chloro-3′-(5-(2-(4-(methoxymethyl)bicyclo[2.2.1]heptane-1-yl)ethyl)-1-(methyl-d3)-4,5,6,7-tetrahydro-1H-imidazo[4,5-c]pyridine-2-carboxamido)-2′-methyl-[1,1′-biphenyl]-3-yl)carbamoyl)-1-(methyl-d3)-1,4,6,7-tetrahydro-5H-imidazo[4,5-c]pyridin-5-yl)ethyl)bicyclo[2.2.1]heptane-1-carboxylic acid]"
2,58.4,"[2H]C([2H])([2H])OCC12CCC(CCN3CCc4c(nc(C(=O)Nc5cccc(-c6cccc(NC(=O)c7nc8c(n7C([2H])([2H])[2H])CCN(CCC79CCC(C(=O)O)(CC7)C9)C8)c6C)c5Cl)n4C([2H])([2H])[2H])C3)(CC1)C2 [Compound I-11, 4-(2-(2-((2′-chloro-3′-(5-(2-(4-((methoxy-d3)methyl)bicyclo[2.2.1]heptane-1-yl)ethyl)-1-(methyl-d3)-4,5,6,7-tetrahydro-1H-imidazo[4,5-c]pyridine-2-carboxamido)-2-methyl-[1,1′-biphenyl]-3-yl)carbamoyl)-1-(methyl-d3)-1,4,6,7-tetrahydro-5H-imidazo[4,5-c]pyridin-5-yl)ethyl)bicyclo[2.2.1]heptane-1-carboxylic acid]"
3,47.9,"[2H]C([2H])([2H])n1c(C(=O)Nc2cccc(-c3cccc(NC(=O)c4nc5c(n4C([2H])([2H])[2H])CCN(CCC46CCC(COC)(CC4)C6)C5)c3Cl)c2C)nc2c1CCN(CCC13CCC(C(=O)O)(CC1)C3)C2 [Compound I-12, 4-(2-(2-((2′-chloro-3′-(5-(2-(4-(methoxymethyl)bicyclo[2.2.1]heptane-1-yl)ethyl)-1-(methyl-d3)-4,5,6,7-tetrahydro-1H-imidazo[4,5-c]pyridine-2-carboxamido)-2-methyl-[1,1′-biphenyl]-3-yl)carbamoyl)-1-(methyl-d3)-1,4,6,7-tetrahydro-5H-imidazo[4,5-c]pyridin-5-yl)ethyl)bicyclo [2.2.1]heptane-1-carboxylic acid]"
4,26.2,"[2H]c1c([2H])c(NC(=O)c2nc3c(n2C([2H])([2H])[2H])CCN(CCC24CCC(COC([2H])([2H])[2H])(CC2)C4)C3)c(Cl)c(-c2c([2H])c([2H])c([2H])c(NC(=O)c3nc4c(n3C([2H])([2H])[2H])CCN(CCC35CCC(C(=O)O)(CC3)C5)C4)c2Cl)c1[2H] [Compound I-13, 4-(2-(2-((2,2′-dichloro-3′-(5-(2-(4-((methoxy-d3)methyl)bicyclo[2.2.1]heptane-1-yl)ethyl)-1-(methyl-d3)-4,5,6,7-tetrahydro-1H-imidazo[4,5-c]pyridine-2-carboxamido)-[1,1′-biphenyl]-3-yl-4,4′, 5,5′,6,6′-d6)carbamoyl)-1-(methyl-d3)-1,4,6,7-tetrahydro-5H-imidazo[4,5-c]pyridin-5-yl)ethyl)bicyclo[2.2.1]heptane-1-carboxylic acid]"

# Source: patent US20260234164A1, “BIPHENYL COMPOUND AS IMMUNOMODULATOR, PREPARATION METHOD THEREFOR AND USE THEREOF” (SHENZHEN CHIPSCREEN BIOSCIENCES CO., LTD., priority 2021, published 2026)
